In the METLIN SMRT retention time set (Domingo-Almenara et al. 2019):

Assay: gradient 5% acetonitrile 3 min, to 50% in 2 min, to 85% in 15 min, held 3 min, 100 µL/min
Conditions: column: Zorbax Extend-C18 2.1 x 50 mm; eluents: water / acetonitrile, 0.1% formic acid
Summary of the method: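 Pure standards were analyzed in mixtures of ~100 molecules using HPLC coupled to a quadrupole time-of-flight mass spectrometer, in both positive and negative ionization mode. Separation used a Zorbax Extend-C18 column (2.1 × 50 mm, 1.8 μm) at 100 μL/min, with water and acetonitrile each containing 0.1% formic acid. Dead and dwell volumes were 40 μL and 900 μL, and data were collected over 3 months. Retention time was read from computationally picked adduct peaks, each inspected manually.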

Q: Which RP-LC retention time does the source give for `COc1ccc(-c2noc(C3CCCN3C(=O)c3cc(Cl)ccc3OC)n2)cc1` (stereo unspecified) here?
A: The RP-LC retention time was 1020 s.

Q: Which RP-LC retention time does the source give for `COc1ccc(-n2ccc(=O)c(-c3nc(-c4ccc(Br)cc4)no3)n2)cc1` here?
A: The RP-LC retention time was 984 s.

Q: With `Cc1nnc(NC(=O)CSc2ccc(-c3sc(-c4cccnc4)nc3C)nn2)s1` as the molecule, how does the RP-LC retention time read?
A: Its RP-LC retention time is 622 s.

Q: Which RP-LC retention time does the source give for `CC1CCN(C(=O)c2nc(-c3ccnc(N4CCCC4)c3)no2)CC1` here?
A: The RP-LC retention time was 684 s.

Q: Which RP-LC retention time does the source give for `O=c1ccc(S(=O)(=O)N2CCCCCC2)cn1Cc1cccc(F)c1` here?
A: The RP-LC retention time was 944 s.

Q: Which RP-LC retention time does the source give for `O=C(CCn1ccc2cc(S(=O)(=O)N3CCCCC3)ccc21)N1CCN(c2ccccn2)CC1` here?
A: Its RP-LC retention time is 680 s.

Q: For `CC(C)c1noc(-c2cccnc2N2CCCN(Cc3ccc(F)cc3Cl)CC2)n1`, which RP-LC retention time is on record?
A: Its RP-LC retention time is 754 s.

Q: With `CCCNC(=O)Nc1cccc(-c2noc(-c3ccc4c(c3)OCO4)n2)c1` as the molecule, how does the RP-LC retention time read?
A: Its RP-LC retention time is 941 s.

Q: Which RP-LC retention time does the source give for `O=C1[C@H]2CN(Cc3ccncc3)C[C@H]2C(=O)N1Cc1ccc2c(c1)OCO2` here?
A: The RP-LC retention time was 605 s.

Q: Which RP-LC retention time does the source give for `CN1C(=O)C2CCCCN2c2ccc(C(=O)NCCCN3CCOCC3)cc21` (stereo unspecified) here?
A: Its RP-LC retention time is 579 s.

Q: With `O=C(NCc1cccnc1)C1CCN(S(=O)(=O)c2ccc(-c3noc(C4CC4)n3)cc2)CC1` as the molecule, how does the RP-LC retention time read?
A: Its RP-LC retention time is 659 s.

Q: For `Cc1ccn2cc(C(=O)N3CCN(c4ccccc4C)CC3)nc2c1`, which RP-LC retention time is on record?
A: The RP-LC retention time was 901 s.

Q: With `CNC(=O)c1c(NC(=O)COc2ccccc2)sc2c1CCC2` as the molecule, how does the RP-LC retention time read?
A: The RP-LC retention time was 1020 s.

Q: With `COCC1CCN(C(=O)NCc2cccc3ccccc23)CC1` as the molecule, how does the RP-LC retention time read?
A: The RP-LC retention time was 769 s.

Q: With `CCc1ccc(NC(=O)c2cn(C)nc2S(=O)(=O)N2CCSCC2)cc1` as the molecule, how does the RP-LC retention time read?
A: The RP-LC retention time was 1040 s.

Q: With `CCCn1c(=O)sc2cc(S(=O)(=O)N3CCC(C(=O)Nc4ncccc4C)CC3)ccc21` as the molecule, how does the RP-LC retention time read?
A: Its RP-LC retention time is 660 s.

Q: For `O=C(c1ccc(C(F)(F)F)cc1)N1CCN(c2nc(CN3CCOCC3)cs2)CC1`, which RP-LC retention time is on record?
A: Its RP-LC retention time is 655 s.

Q: With `CN1CCCn2nc(C3CCN(C(=O)Nc4cccc(C#N)c4)CC3)cc2C1=O` as the molecule, how does the RP-LC retention time read?
A: The RP-LC retention time was 656 s.

Q: Which RP-LC retention time does the source give for `CCOc1cccc(-c2noc(Cn3ncn4nc(-c5cccs5)cc4c3=O)n2)c1` here?
A: The RP-LC retention time was 1140 s.

Q: With `COc1ccc2nc(-c3ccc(C)c(NS(=O)(=O)c4cc(C)ccc4OC)c3)cn2n1` as the molecule, how does the RP-LC retention time read?
A: The RP-LC retention time was 812 s.

Q: With `Cc1cccc(Cn2cc(S(=O)(=O)N3CCOCC3)ccc2=O)c1` as the molecule, how does the RP-LC retention time read?
A: Its RP-LC retention time is 789 s.

Q: With `CCCCn1cc(S(=O)(=O)Nc2ccc(OC)cc2)c2cccnc21` as the molecule, how does the RP-LC retention time read?
A: The RP-LC retention time was 896 s.

Q: For `CCc1nc(-c2cc(S(=O)(=O)NCC(=O)NC3CC3)c(C)s2)no1`, which RP-LC retention time is on record?
A: The RP-LC retention time was 740 s.

Q: With `Cn1cc(-c2cc3n(n2)CCC(=O)N3CC(=O)NCc2ccccc2Cl)c2ccccc21` as the molecule, how does the RP-LC retention time read?
A: Its RP-LC retention time is 830 s.

Q: Which RP-LC retention time does the source give for `CCCOc1cn(-c2ccc(F)cc2)nc1C(=O)N1CCC(C(=O)OCC)CC1` here?
A: The RP-LC retention time was 930 s.

Q: For `CC(C)n1c(=O)oc2cc(-c3noc(-c4cccc(Br)c4)n3)ccc21`, which RP-LC retention time is on record?
A: Its RP-LC retention time is 1340 s.

Q: For `O=C(Nc1cccc2c1N(C(=O)c1ccco1)CCC2)c1ccco1`, which RP-LC retention time is on record?
A: Its RP-LC retention time is 784 s.

Q: Which RP-LC retention time does the source give for `Cc1ccc(-c2csc(NC(=O)CCCOc3ccc(Cl)cc3)n2)cc1` here?
A: The RP-LC retention time was 979 s.

Q: For `Cc1ccccc1-c1noc(C2CCCN2C(=O)Nc2ccc(F)cc2F)n1` (stereo unspecified), which RP-LC retention time is on record?
A: Its RP-LC retention time is 993 s.

Q: With `COc1ccc(OCc2nnc3sc(-c4cc(CC(C)C)[nH]n4)nn23)cc1` as the molecule, how does the RP-LC retention time read?
A: The RP-LC retention time was 917 s.

Q: For `COCCn1ncc(N2CCCC(CC(=O)O)C2)cc1=O` (stereo unspecified), which RP-LC retention time is on record?
A: The RP-LC retention time was 613 s.

Q: For `COc1ccccc1-c1nnc(C2CCN(C(=O)c3ccccc3)CC2)o1`, which RP-LC retention time is on record?
A: The RP-LC retention time was 741 s.

Q: For `CCOC(=O)CCNC(=O)N1CCN(Cc2nnnn2-c2ccc(F)c(F)c2)CC1`, which RP-LC retention time is on record?
A: Its RP-LC retention time is 688 s.

Q: For `COCCc1noc(-c2cnc3nc(C)ccc3c2Nc2ccc(F)cc2)n1`, which RP-LC retention time is on record?
A: Its RP-LC retention time is 688 s.

Q: Which RP-LC retention time does the source give for `Cc1ccccc1C(=O)Nc1nc(-c2ccc3c(c2)NC(=O)C(C)O3)c(C)s1` (stereo unspecified) here?
A: The RP-LC retention time was 797 s.

Q: For `CCOc1ccccc1-c1noc(Cn2c(=O)n(-c3cccc(F)c3)c(=O)c3sccc32)n1`, which RP-LC retention time is on record?
A: Its RP-LC retention time is 967 s.
